Measured values from PMC11570842 (The Journal of Biological Chemistry, 2024).

Target: T1, Ubp2 (Saccharomyces cerevisiae, UniProt Q01476)
T1 sequence (Q01476 1-1272): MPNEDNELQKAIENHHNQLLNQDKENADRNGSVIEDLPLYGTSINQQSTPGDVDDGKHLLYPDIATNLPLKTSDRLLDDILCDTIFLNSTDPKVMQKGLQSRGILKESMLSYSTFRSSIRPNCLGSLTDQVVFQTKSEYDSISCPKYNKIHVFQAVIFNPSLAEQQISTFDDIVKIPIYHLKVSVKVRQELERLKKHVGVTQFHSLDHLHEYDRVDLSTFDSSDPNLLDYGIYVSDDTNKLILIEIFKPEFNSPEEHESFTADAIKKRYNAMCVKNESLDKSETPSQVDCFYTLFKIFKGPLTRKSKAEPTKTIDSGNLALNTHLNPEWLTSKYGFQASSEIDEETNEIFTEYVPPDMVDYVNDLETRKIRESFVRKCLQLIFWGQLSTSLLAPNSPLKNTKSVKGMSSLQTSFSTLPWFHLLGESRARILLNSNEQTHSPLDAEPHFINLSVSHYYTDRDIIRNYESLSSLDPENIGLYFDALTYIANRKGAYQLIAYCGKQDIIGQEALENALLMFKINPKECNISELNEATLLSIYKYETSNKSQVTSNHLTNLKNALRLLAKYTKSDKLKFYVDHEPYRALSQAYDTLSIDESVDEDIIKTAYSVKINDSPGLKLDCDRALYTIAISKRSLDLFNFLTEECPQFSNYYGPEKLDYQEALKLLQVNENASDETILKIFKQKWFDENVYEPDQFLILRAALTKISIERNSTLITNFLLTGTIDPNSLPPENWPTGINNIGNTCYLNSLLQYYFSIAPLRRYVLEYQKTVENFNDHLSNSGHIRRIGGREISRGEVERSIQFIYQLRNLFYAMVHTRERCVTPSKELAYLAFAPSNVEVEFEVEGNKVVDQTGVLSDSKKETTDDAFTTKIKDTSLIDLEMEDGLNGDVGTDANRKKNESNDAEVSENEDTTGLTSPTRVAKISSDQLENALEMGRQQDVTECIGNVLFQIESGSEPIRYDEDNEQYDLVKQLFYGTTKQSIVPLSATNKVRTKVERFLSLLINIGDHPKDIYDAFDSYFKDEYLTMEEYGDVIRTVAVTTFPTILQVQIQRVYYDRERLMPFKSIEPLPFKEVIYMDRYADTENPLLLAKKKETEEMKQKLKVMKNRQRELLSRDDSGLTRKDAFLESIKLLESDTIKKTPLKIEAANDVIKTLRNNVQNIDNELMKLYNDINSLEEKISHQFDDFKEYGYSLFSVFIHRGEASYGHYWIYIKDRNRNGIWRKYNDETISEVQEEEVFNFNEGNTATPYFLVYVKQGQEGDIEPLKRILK
Settings: 100 uM PR-619, 5 min preincubation; 0.75 uM Ub-Rho, 50 mM Tris-HCl pH 7.5, 150 mM NaCl, 30 C; activity abrogated

N#CSc1cc(SC#N)c(N)nc1N [PR-619]
fluorogenic Ub-rhodamine 110 cleavage: pan DUB inhibitor PR-619 and the cysteine alkylator iodoacetamide (IAA) abrogated Ubp2 enzymatic activity
